Test results published in US20080279936A1, “Estradiol metabolites for reduction of endothelin production” (The University of Pittsburgh, priority 2001, published 2008).
Where two headings read alike, the source gives them in different places.

Key:
[1] = tested on: endothelin-1 (ET-1) synthesis in porcine coronary artery endothelial cells (PCAECs); assay: Stimulated (FCS, angiotensin II, thrombin, TNFα) ET-1 release into the medium by PCAECs (ELISA); format: cell-based; design: induction of ET-1 secretion (percentage increase vs vehicle-treated controls): dose or concentration left out as unconfirmed; details: for induction of ET-1 secretion (percentage increase vs vehicle-treated controls): stimulus alone; for effect on FCS-induced ET-1 synthesis: 10 nmol/L; for inhibition of FCS-induced ET-1 secretion / inhibition of TNFα-induced ET-1 secretion / inhibition of angiotensin II-induced ET-1 secretion / inhibition of thrombin-induced ET-1 secretion / inhibition at 0.001 µM: 1 nmol/L; for reversal by ICI182780 of the compound's inhibitory effect on FCS-stimulated ET-1 secretion: ICI182780 50 μmol/L; for effectiveness in inhibiting basal and stimulated ET-1 secretion compared with estradiol: order of potency 2-methoxyestradiol>2-hydroxyestradiol>estradiol; for inhibition at 0.001 µM: Sus scrofa, Endothelial cell
Excerpt: (§1) Hearts from female pigs were obtained from a local slaughter house and placed in ice-cold oxygenated DMEM (Gibco, Rockville, Md. now Invitrogen, Carlsbad Calif., hereinafter “Gibco”) containing antibiotics (Gibco). The epicardial coronary arteries were isolated, and the fat and connective tissue were removed. Endothelial cells were isolated by collagenase/dispase digestion (Ohbayashi, A., et al., Biochem. Brophys. Res. Commun. 202:504 (1994), the disclosure of which is incorporated herein be reference (“Ohbayashi, et al.”)). The isolated cells were washed in DMEM/F12 medium (Gibco) supplemented with 10% fetal calf serum (“FCS”) (HyClone Laboratories, Logan, Utah) and endothelial cell growth supplement (Clonetics, Walkersville, Md.), and cells were grown to confluence under standard tissue culture conditions. The purity of the cultures, which was characterized by immunostaining with factor VIII antigen (Sigma, St. Louis, Mo.) and by assaying the preferential uptake of the fluorescent probe Dil-acetylated low density lipoprotein (Biomedical Technologies, Inc., Stoughton, Mass.), (Ohbayashi, et al.) was 98%. Cells were passaged by trypsinization, and cells in second and third passage were used for all experiments in this example.
(§2) To study the effects of estradiol and its metabolites on ET-1 synthesis in porcine coronary artery endothelial cells (“PCAECs”) (Gibco), confluent monolayers of PCAECs were washed twice with HBSS (Gibco) and treated with DMEM/F12 (gibco) supplemented with 0.4% bovine serum albumin (BSA) containing or lacking 0.001 to 1 μmol/L of estradiol, 2-hydroxyestradiol, or 2-methoxyestradiol (Steraloids, Newport, R.I.). […] The supernatants were collected for ET-1 analysis, and the samples were frozen at −70° C. until analyzed. ET-1 levels were measured with the BIOTRAK™ (Amersham Pharmacia Biotech Europe Gmbh, Dubendorf, Switzerland) high-sensitivity endothelin-1 human ELISA system.
Cells were also treated as above in the presence and absence of the estradiol receptor (“ER”) antagonist, ICI182780 (50 μmol/L; Tocris Cookson Ltd, Ballwin, Mo.). To analyze whether the inhibitory effects of estradiol were mediated by means of ER-β, the effects of genistein (0.001 to 10 μmol/L) (Sigma) were investigated. To evaluate whether the effects of estradiol were mimicked by various clinically used estrogens, the cells were treated as above, in the presence and absence of ICI182780, with 10 nmol/L of estradiol valerate, estradiol cypionate, estradiol benzoate, 17α-estradiol, estrone, estriol or estrone sulfate (all from Sigma), and the ET-1 synthesis in response to FCS (2.5%) was analyzed.

[2] = tested on: mitogen-activated protein kinase (MAPK) activity in PCAECs; assay: FCS-induced MAPK activity in PCAECs; format: cell-based, porcine
Excerpt: Hearts from female pigs were obtained from a local slaughter house and placed in ice-cold oxygenated DMEM (Gibco, Rockville, Md. now Invitrogen, Carlsbad Calif., hereinafter “Gibco”) containing antibiotics (Gibco). The epicardial coronary arteries were isolated, and the fat and connective tissue were removed. Endothelial cells were isolated by collagenase/dispase digestion (Ohbayashi, A., et al., Biochem. Brophys. Res. Commun. 202:504 (1994), the disclosure of which is incorporated herein be reference (“Ohbayashi, et al.”)). […] The purity of the cultures, which was characterized by immunostaining with factor VIII antigen (Sigma, St. Louis, Mo.) and by assaying the preferential uptake of the fluorescent probe Dil-acetylated low density lipoprotein (Biomedical Technologies, Inc., Stoughton, Mass.), (Ohbayashi, et al.) was 98%. Cells were passaged by trypsinization, and cells in second and third passage were used for all experiments in this example. […] Some cells were pretreated for 1 hour with ICI182780 before treatment with the test agents. After stimulation, the cells were washed with ice-cold PBS and extraction buffer (50 mmol/L β-glycerophosphate, 1.5 mmol/L EGTA, 1 mmol/L dithiothreitol, 100 μmol/L Na3VO4, 10 μg/mL aprotinin, 5 μg/mL pepstatin, […] leupeptin, and 1 mmol/L benzamidine) (all from Sigma), scraped off the plates, and sonicated for 20 seconds in 0.5 mL of extraction buffer. The extracts were collected, the cytosolic fractions were separated by centrifuging the extracts at 100,000×g for 20 minutes at 4° C., and the supernatants were diluted to a concentration of 1 mg protein/mL and stored at -70° C. for mitogen-activated protein kinase (“MAPK”) activity assays. The MAPK activity in the cytosolic extracts was quantified as described by Dubey, R. K., et al., Arterioscler. Thromb. Vasc. Biol. 20:964 (2000), the disclosure of which is incorporated herein by reference.

[3] = tested on: endothelin-1 (ET-1) synthesis in porcine coronary artery endothelial cells (PCAECs); assay: Basal ET-1 release into the medium by PCAECs (ELISA); format: cell-based; details: for effect on basal ET secretion: 2 nmol/L, PCAECs incubated 4, 8, 12 and 24 hours
Excerpt: as §1, §2
To analyze the effects of estradiol and its metabolites on the basal synthesis of ET-1, cells were pretreated with or without the various above-listed agents and with and without ICI182780 for 24 hours and were fed fresh DMEM/F12 supplemented with 0.4%; BSA (Sigma) and the respective treatments. The supernatants were collected after 4, 8, 12, and 24 hours and the ET-1 levels were analyzed.

[4] = angiotensin II 100 nmol/L, 4 hours
[5] = 1 nmol/L, pretreated 24 hours, FCS 2.5%

**Q.** With “angiotensin II [stimulatory agent for ET-1 secretion]” as the compound, how does the “induction of ET-1 secretion (percentage increase vs vehicle-treated controls)” value ([1]; 4 hours) read?
**A.** 116±7%

**Q.** How did the “effect on FCS-induced ET-1 synthesis” value ([1]; FCS 2.5%, 4 hours) turn out when C[C@]12CC[C@@H]3c4ccc(O)cc4CC[C@H]3[C@@H]1CC[C@H]2O [17α-estradiol] was run?
**A.** unable to lower ET-1 secretion

**Q.** With C[C@]12CC[C@@H]3c4cc(O)c(O)cc4CC[C@H]3[C@@H]1CC[C@@H]2O [2-hydroxyestradiol, estra-1,3,5 (10)-triene-2,3,17-triol (17β)] as the compound, how does the “inhibition of FCS-induced ET-1 secretion” value ([1]; FCS 2.5%, 4 hours) read?
**A.** 31%

**Q.** And the “inhibition of TNFα-induced ET-1 secretion” value ([1]; TNFα 10 ng/mL, 4 hours)?
**A.** 35%

**Q.** And the “inhibition of angiotensin II-induced ET-1 secretion” value [1, 4]?
**A.** 33%

**Q.** What about the “inhibition of thrombin-induced ET-1 secretion” value ([1]; thrombin 4 U/mL, 4 hours) of the same compound?
**A.** 40%

**Q.** And the “reversal by ICI182780 of the compound's inhibitory effect on FCS-stimulated ET-1 secretion” value ([1]; FCS 2.5%, 4 hours)?
**A.** not

**Q.** What about the “effectiveness in inhibiting basal and stimulated ET-1 secretion compared with estradiol” value [1] of the same compound?
**A.** more effective

**Q.** And the “inhibition of FCS-induced MAPK activity” value [2, 5]?
**A.** 34±4%

**Q.** And the “potency in inhibiting FCS-induced MAPK activity compared with estradiol” value ([2]; pretreated 24 hours, FCS 2.5%)?
**A.** more potent

**Q.** And the “effect on basal ET secretion” value [3]?
**A.** inhibited

**Q.** Which results are given for C[C@]12CC[C@@H]3c4ccc(OC(=O)c5ccccc5)cc4CC[C@H]3[C@@H]1CC[C@@H]2O [estradiol benzoate]?
**A.** effect on FCS-induced ET-1 synthesis ([1]; FCS 2.5%, 4 hours): inhibited; reversal by ICI182780 of the compound's inhibitory effect on FCS-stimulated ET-1 secretion ([1]; FCS 2.5%, 4 hours): reversed

**Q.** With COc1cccc(-c2cc(=O)c3ccccc3o2)c1N [PD98059] as the compound, how does the MAPK activity ([2]; growth-arrested cells, FCS 2.5% for 10 minutes, unstimulated 0.187, PD98059 at 10 μmol/L) read?
**A.** 0.7 μmol/min/mg protein

**Q.** How did the “induction of ET-1 secretion (percentage increase vs vehicle-treated controls)” value ([1]; 4 hours) turn out when thrombin was run?
**A.** 98±5%

**Q.** Which “effect on FCS-induced ET-1 synthesis” value ([1]; FCS 2.5%, 4 hours) does the source give for C[C@]12CC[C@@H]3c4ccc(O)cc4CC[C@H]3[C@@H]1C[C@@H](O)[C@@H]2O [estriol] here?
**A.** unable to lower ET-1 secretion

**Q.** Which “effect on FCS-induced ET-1 synthesis” value ([1]; FCS 2.5%, 4 hours) does the source give for C[C@]12CC[C@@H]3c4ccc(O)cc4CC[C@H]3[C@@H]1CC[C@@H]2OC(=O)CCC1CCCC1 [estradiol cypionate] here?
**A.** inhibited

**Q.** What about the “reversal by ICI182780 of the compound's inhibitory effect on FCS-stimulated ET-1 secretion” value ([1]; FCS 2.5%, 4 hours) of the same compound?
**A.** reversed

**Q.** How did the “concentrations at which inhibitory effects on ET-1 secretion were observed” value ([1]; FCS 2.5%-stimulated, 4 hours, tested 0.001 to 10 μmol/L) turn out when O=c1c(-c2ccc(O)cc2)coc2cc(O)cc(O)c12 [Genistein, genistein] was run?
**A.** ≥ 1 µmol/L

**Q.** And the “reversal by ICI182780 of the compound's inhibitory effect on FCS-stimulated ET-1 secretion” value ([1]; FCS 2.5%, 4 hours)?
**A.** not reversed

**Q.** How did the “effect on FCS-induced ET-1 synthesis” value ([1]; FCS 2.5%, 4 hours) turn out when estrone sulfate was run?
**A.** unable to lower ET-1 secretion

**Q.** Which results are given for C[C@]12CC[C@@H]3c4ccc(O)cc4CC[C@H]3[C@@H]1CC[C@@H]2O [estradiol, 17β-estradiol]?
**A.** ET-1 secretion induced in response to FCS (percentage increase) in presence of compound ([1]; 1 nmol/L compound, FCS 2.5%, 4 hours, control 138±16%): 82±8%; ET-1 secretion induced in response to TNFα (percentage increase) in presence of compound ([1]; 1 nmol/L compound, TNFα 10 ng/mL, 4 hours, control 120±8%): 68±5%; ET-1 secretion induced in response to angiotensin II (percentage increase) in presence of compound ([1]; 1 nmol/L compound, angiotensin II 100 nmol/L, 4 hours, control 116±7%): 73±6%; ET-1 secretion induced in response to thrombin (percentage increase) in presence of compound ([1]; 1 nmol/L compound, thrombin 4 U/mL, 4 hours, control 98±6%): 53±4%; reversal by ICI182780 of the compound's inhibitory effect on FCS-stimulated ET-1 secretion ([1]; FCS 2.5%, 4 hours): completely blocked; inhibition at 0.001 µM ([1]; FCS 2.5%, 4 hours, read-out: inhibition of FCS-induced ET-1 secretion): 22%; inhibition at 0.001 µM ([1]; TNFα 10 ng/mL, 4 hours, read-out: inhibition of TNFα-induced ET-1 secretion): 26%; inhibition at 0.001 µM ([1]; angiotensin II 100 nmol/L, 4 hours, read-out: inhibition of angiotensin II-induced ET-1 secretion): 20%; inhibition at 0.001 µM ([1]; thrombin 4 U/mL, 4 hours, read-out: inhibition of thrombin-induced ET-1 secretion): 24%; reversal by ICI182780 of the compound's inhibitory effect on FCS-induced MAPK activity ([2]; ICI182780 50 μmol/L pretreatment, compound 10 nmol/L): completely reversed; inhibition at 0.001 µM ([2]; Sus scrofa, 1 nmol/L, pretreated 24 hours, FCS 2.5%): 19 ± 2.6%; effect on basal ET secretion [3]: inhibited; inhibition at 0.002 µM ([3]; Sus scrofa, Endothelial cell, 8 h, read-out: inhibition of basal synthesis of ET-1): 19 ± 2%

**Q.** Which results are given for CCCCC(=O)O[C@H]1CC[C@H]2[C@@H]3CCc4cc(O)ccc4[C@H]3CC[C@]12C [estradiol valerate]?
**A.** effect on FCS-induced ET-1 synthesis ([1]; FCS 2.5%, 4 hours): inhibited; reversal by ICI182780 of the compound's inhibitory effect on FCS-stimulated ET-1 secretion ([1]; FCS 2.5%, 4 hours): reversed

**Q.** Which “induction of ET-1 secretion (percentage increase vs vehicle-treated controls)” value ([1]; 4 hours) does the source give for TNFα here?
**A.** 120±8%

**Q.** What does the source list for COc1cc2c(cc1O)CC[C@@H]1[C@@H]2CC[C@]2(C)[C@@H](O)CC[C@@H]12 [2-methoxyestradiol, estra-1,3,5 (10)-triene-2-methoxy-3,17-diol (17β)]?
**A.** inhibition of FCS-induced ET-1 secretion ([1]; FCS 2.5%, 4 hours): 44%; inhibition of TNFα-induced ET-1 secretion ([1]; TNFα 10 ng/mL, 4 hours): 56%; inhibition of angiotensin II-induced ET-1 secretion [1, 4]: 39%; inhibition of thrombin-induced ET-1 secretion ([1]; thrombin 4 U/mL, 4 hours): 46%; reversal by ICI182780 of the compound's inhibitory effect on FCS-stimulated ET-1 secretion ([1]; FCS 2.5%, 4 hours): not; effectiveness in inhibiting basal and stimulated ET-1 secretion compared with estradiol [1]: more effective; inhibition of FCS-induced MAPK activity [2, 5]: 46±4.7%; potency in inhibiting FCS-induced MAPK activity compared with estradiol ([2]; pretreated 24 hours, FCS 2.5%): more potent; effect on basal ET secretion [3]: inhibited

**Q.** For C[C@]12CC[C@@H]3c4ccc(O)cc4C[C@@H](CCCCCCCCC[S+]([O-])CCCC(F)(F)C(F)(F)F)[C@H]3[C@@H]1CC[C@@H]2O (some centres unmarked) [ICI182780], which “effect of compound alone on basal or FCS-stimulated ET-1 synthesis” value ([1]; 50 μmol/L) is on record?
**A.** did not influence
